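These data come from cells grown in 96-well plates and exposed to compound for 48 hours at five concentrations. GI50: concentration for 50% inhibition of growth. TGI is the concentration that stops growth completely.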
Legend:
Experiment in all cases: NCI-60 cell line screen, 48 h
[1] = test system: UACC-62 melanoma
[2] = test system: OVCAR-8 ovarian
[3] = test system: NCI-H23 lung
[4] = test system: SK-MEL-2 melanoma
[5] = test system: TK-10 renal
[6] = test system: A549 NSCLC
[7] = test system: SF-268 CNS
[8] = test system: SNB-19 CNS
[9] = test system: A498 renal
[10] = test system: T-47D breast
[11] = test system: HOP-62 NSCLC
[12] = test system: BT-549 breast
[13] = test system: MOLT-4 leukemia
[14] = test system: NCI-H522 lung
[15] = test system: HCC-2998 colon
[16] = test system: HL-60(TB) leukemia
[17] = test system: MCF7 breast
[18] = test system: KM12 colon
[19] = test system: SW-620 colon
[20] = test system: IGROV1 ovarian
[21] = test system: HCT-15 colon
[22] = test system: RXF 393 renal
[23] = test system: MDA-MB-435
[24] = test system: M14 melanoma
[25] = test system: MALME-3M melanoma
[26] = test system: SR leukemia
[27] = test system: 786-0 renal
[28] = test system: RPMI-8226 leukemia
[29] = test system: SN12C renal
[30] = test system: HOP-92 NSCLC
[31] = test system: UO-31 renal
[32] = test system: K-562 leukemia
[33] = test system: CCRF-CEM leukemia
[34] = test system: DU-145 prostate
[35] = test system: COLO 205 colon
[36] = test system: SK-OV-3 ovarian
[37] = test system: SK-MEL-28 melanoma
[38] = test system: SK-MEL-5 melanoma
[39] = test system: SNB-75 CNS
[40] = test system: PC-3 prostate
[41] = test system: LOX IMVI melanoma
[42] = test system: SF-295 CNS
[43] = test system: ACHN renal
[44] = test system: OVCAR-4 ovarian
[45] = test system: NCI/ADR-RES ovarian
[46] = test system: HCT-116 colon
[47] = test system: HT29 colon
[48] = test system: NCI-H226 lung
[49] = test system: CAKI-1 renal
[50] = test system: OVCAR-3 ovarian
[51] = test system: NCI-H460 lung
[52] = test system: U251 CNS
[53] = test system: UACC-257 melanoma
[54] = test system: HS 578T breast
[55] = test system: MDA-MB-231 breast
[56] = test system: OVCAR-5 ovarian
[57] = test system: SF-539 CNS

Nc1c(C(=O)Nc2cccc(C(F)(F)F)c2)sc2nc3c(cc12)C(O)CCC3 (centres undefined) was tested, and the GI50 [1] was 3.2 µM, the TGI [1] was over 100 µM and the GI50 [2] was 9.66 µM. It also gave a TGI [2] of over 100 µM, a GI50 [3] of 15.2 µM and a TGI [3] of over 100 µM. It also gave a GI50 [4] of 6.69 µM, a TGI [4] of 56.4 µM and a GI50 [5] of 11.8 µM. The TGI [5] was 50.2 µM, the GI50 [6] was 6.85 µM and the TGI [6] was over 79.4 µM. For the same compound, the GI50 [7] was 6.07 µM, the TGI [7] was over 67.1 µM and the GI50 [8] was 14.4 µM. For the same compound, the TGI [8] was over 100 µM, the GI50 [9] was 0.872 µM and the TGI [9] was 27.7 µM. The GI50 [10] was 8.69 µM, the TGI [10] was 66.8 µM and the GI50 [11] was 6.82 µM. The TGI [11] was 39.4 µM, the GI50 [12] was 7.27 µM and the TGI [12] was over 100 µM. The GI50 [13] was 6.7 µM, the TGI [13] was over 100 µM and the GI50 [14] was 12.7 µM. The TGI [14] was over 100 µM, the GI50 [15] was over 61.2 µM and the TGI [15] was over 100 µM. The GI50 [16] was 3.22 µM, the TGI [16] was over 100 µM and the GI50 [17] was 1.39 µM. For the same compound, the TGI [17] was over 100 µM, the GI50 [18] was 3.28 µM and the TGI [18] was over 100 µM. It also gave a GI50 [19] of 2.73 µM, a TGI [19] of over 100 µM and a GI50 [20] of 14.1 µM. For the same compound, the TGI [20] was over 100 µM, the GI50 [21] was 1.93 µM and the TGI [21] was over 100 µM. It also gave a GI50 [22] of 5.65 µM, a TGI [22] of 50.8 µM and a GI50 [23] of 0.322 µM. For the same compound, the TGI [23] was 1.65 µM, the GI50 [24] was 3.18 µM and the TGI [24] was 99.5 µM. It also gave a GI50 [25] of 6.72 µM, a TGI [25] of over 68 µM and a GI50 [26] of 0.61 µM. For the same compound, the TGI [26] was over 88.1 µM, the GI50 [27] was 13.7 µM and the TGI [27] was 44.8 µM. It also gave a GI50 [28] of 4.26 µM, a TGI [28] of over 100 µM and a GI50 [29] of 11.1 µM. For the same compound, the TGI [29] was over 100 µM, the GI50 [30] was 3.31 µM and the TGI [30] was 25.6 µM. The GI50 [31] was 32.2 µM, the TGI [31] was over 100 µM and the GI50 [32] was 0.703 µM. It also gave a TGI [32] of over 100 µM, a GI50 [33] of 3.4 µM and a TGI [33] of over 100 µM. For the same compound, the GI50 [34] was 5.44 µM, the TGI [34] was over 57.9 µM and the GI50 [35] was 3.79 µM. For the same compound, the TGI [35] was over 100 µM, the GI50 [36] was 15.3 µM and the TGI [36] was over 100 µM. The GI50 [37] was 6.42 µM, the TGI [37] was over 100 µM and the GI50 [38] was 3.59 µM. It also gave a TGI [38] of over 81.6 µM, a GI50 [39] of 3.47 µM and a TGI [39] of 18.1 µM. The GI50 [40] was 4.02 µM, the TGI [40] was 28.4 µM and the GI50 [41] was 5.68 µM. It also gave a TGI [41] of over 100 µM, a GI50 [42] of 3.07 µM and a TGI [42] of 38.4 µM. For the same compound, the GI50 [43] was 10.1 µM, the TGI [43] was over 68.4 µM and the GI50 [44] was 3.46 µM. The TGI [44] was over 46.6 µM, the GI50 [45] was 6.14 µM and the TGI [45] was over 100 µM. The GI50 [46] was 3.02 µM, the TGI [46] was over 100 µM and the GI50 [47] was 3.35 µM. For the same compound, the TGI [47] was over 100 µM, the GI50 [48] was 10.8 µM and the TGI [48] was over 95.5 µM. The GI50 [49] was 9.52 µM, the TGI [49] was over 100 µM and the GI50 [50] was 4.27 µM. The TGI [50] was over 49.3 µM, the GI50 [51] was 4.55 µM and the TGI [51] was over 100 µM. For the same compound, the GI50 [52] was 6.05 µM, the TGI [52] was 37.6 µM and the GI50 [53] was over 26.2 µM. For the same compound, the TGI [53] was over 100 µM, the GI50 [54] was 6.23 µM and the TGI [54] was 96.9 µM. It also gave a GI50 [55] of 12.2 µM, a TGI [55] of over 100 µM and a GI50 [56] of over 50 µM. It also gave a TGI [56] of over 100 µM, a GI50 [57] of 4 µM and a TGI [57] of over 41.9 µM.

— PubChem BioAssay (NCI)
